Laboratory results reported in paper PMC4873967, “ISPD produces CDP-ribitol used by FKTN and FKRP to transfer ribitol phosphate onto α-dystroglycan” (Nature Communications, 2016).

Legend:
Type in all cases: biochemical
[1] = target: T1, FKRP (fukutin-related protein) (Mus musculus, UniProt Q8CG64); assay: transfer of radiolabel to alpha-dystroglycan (scintillation counting; SDS-PAGE phosphorimaging); settings: labelled compound; acceptor rabbit alpha-dystroglycan fragments; 2 mM MnCl2, pH 6.5, 30 °C, 16 h
T1 construct: full ORF from mouse thymus cDNA, C-terminal SFB tag (S-tag, two FLAG, SBP), HEK293 lysate, streptavidin beads
T1 sequence (Q8CG64 1-494): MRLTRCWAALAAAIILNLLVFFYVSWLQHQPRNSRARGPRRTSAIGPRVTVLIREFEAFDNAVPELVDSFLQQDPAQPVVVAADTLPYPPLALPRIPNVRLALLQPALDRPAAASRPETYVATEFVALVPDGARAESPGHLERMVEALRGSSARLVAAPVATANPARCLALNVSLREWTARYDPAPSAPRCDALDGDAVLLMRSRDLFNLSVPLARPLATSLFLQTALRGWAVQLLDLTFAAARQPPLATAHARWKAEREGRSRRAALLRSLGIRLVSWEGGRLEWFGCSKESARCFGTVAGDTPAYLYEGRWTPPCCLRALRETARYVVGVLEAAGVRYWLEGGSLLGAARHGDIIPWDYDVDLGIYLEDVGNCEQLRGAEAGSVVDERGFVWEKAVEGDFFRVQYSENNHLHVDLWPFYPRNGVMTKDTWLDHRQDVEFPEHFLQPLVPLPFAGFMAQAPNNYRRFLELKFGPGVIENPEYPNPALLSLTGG

[2] = target: T2, FKTN (fukutin) (Mus musculus, UniProt Q8R507); assay: as above; settings: labelled compound; acceptor rabbit alpha-dystroglycan fragments; 2 mM MnCl2, pH 6.5, 30 °C, 16 h
T2 construct: full ORF from mouse brown adipose tissue cDNA, C-terminal SFB tag (S-tag, two FLAG, SBP), HEK293 lysate, streptavidin beads
T2 sequence (Q8R507 1-461): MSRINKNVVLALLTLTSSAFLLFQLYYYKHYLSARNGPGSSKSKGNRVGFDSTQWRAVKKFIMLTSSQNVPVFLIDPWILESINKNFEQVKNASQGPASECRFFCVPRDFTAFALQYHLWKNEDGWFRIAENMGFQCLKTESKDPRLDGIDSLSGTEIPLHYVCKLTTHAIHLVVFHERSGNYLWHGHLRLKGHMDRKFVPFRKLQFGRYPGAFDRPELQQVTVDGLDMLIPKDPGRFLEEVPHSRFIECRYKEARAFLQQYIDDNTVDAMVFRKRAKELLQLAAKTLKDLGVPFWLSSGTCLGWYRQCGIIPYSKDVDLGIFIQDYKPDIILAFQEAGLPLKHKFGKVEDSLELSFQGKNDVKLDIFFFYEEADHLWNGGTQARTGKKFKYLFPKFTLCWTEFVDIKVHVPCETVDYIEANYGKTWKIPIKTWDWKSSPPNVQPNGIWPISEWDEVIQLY

[3] = target: T3, ISPD (mouse Ispd) (Mus musculus, UniProt Q5RJG7); assay: HPLC (strong anion exchange) of CDP-ribitol formed; settings: 1 mM CTP
T3 construct: gene Crppa
T3 sequence (Q5RJG7 1-447): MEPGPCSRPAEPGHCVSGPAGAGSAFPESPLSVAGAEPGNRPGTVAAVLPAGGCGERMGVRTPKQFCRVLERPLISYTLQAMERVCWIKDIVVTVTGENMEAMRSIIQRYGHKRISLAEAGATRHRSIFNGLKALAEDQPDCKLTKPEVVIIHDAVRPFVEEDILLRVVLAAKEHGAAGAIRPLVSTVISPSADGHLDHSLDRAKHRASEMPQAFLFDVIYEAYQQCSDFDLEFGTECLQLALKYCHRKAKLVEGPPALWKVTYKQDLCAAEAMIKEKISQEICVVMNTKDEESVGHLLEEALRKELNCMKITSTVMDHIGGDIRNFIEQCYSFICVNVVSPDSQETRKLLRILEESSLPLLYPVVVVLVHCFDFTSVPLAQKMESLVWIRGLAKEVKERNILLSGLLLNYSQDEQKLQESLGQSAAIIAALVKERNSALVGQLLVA

Nc1ccn([C@@H]2O[C@H](COP(=O)(O)OP(=O)(O)OC[C@@H](O)[C@@H](O)[C@@H](O)CO)[C@@H](O)[C@H]2O)c(=O)n1 [CDP-ribitol]
transfer of radiolabel to alpha-dystroglycan (scintillation counting); SDS-PAGE p [1]: both FKTN and FKRP were able to transfer ribitol phosphate from CDP-ribitol onto α-dystroglycan | transfer of radiolabel to alpha-dystroglycan (scintillation counting); SDS-PAGE p [2]: both FKTN and FKRP were able to transfer ribitol phosphate from CDP-ribitol onto α-dystroglycan

Nc1ccn([C@@H]2O[C@H](COP(=O)(O)OP(=O)(O)OP(=O)(O)O)[C@@H](O)[C@H]2O)c(=O)n1 [CTP]
HPLC (strong anion exchange) of CDP-ribitol formed ([3]; D-ribitol-5-P as co-substrate, 2 mM MgCl2, pH 7.8, 37 °C): Activity of ISPD on CTP and D-ribitol-5-P

O=P(O)(O)OC[C@@H](O)[C@@H](O)[C@@H](O)CO [D-ribitol-5-P]
HPLC (strong anion exchange) of CDP-ribitol formed ([3]; 2 mM MgCl2, 20 mM KCl, 2 mM DTT, pH 7.8, 37 °C): we clearly observed a CDP-ribitol pyrophosphorylase activity (Fig. 1b)
